Laboratory results reported in patent US7662851B2, “Use of specific cyklolignans” (Axelar AB, priority 2001, dated 2010).
Where two headings read alike, the source gives them in different places.

Columns and labels:
Type in all cases: cell-based
[1] = tested on: RD-ES Ewing's sarcoma cell line; experiment: Cell viability (XTT), RD-ES; conditions: Homo sapiens, 48 h, read-out: EC50 for cell viability
Procedure: (§1) Cell proliferation kit II (Roche Inc.) is based on colorimetric change of the yellow tetrazolium salt XTT in orange formazan dye by the respiratory chain of viable cells (Roehm, N W, et al., J Immunol Methods 142:257-265, 1991). Cells seeded at a concentration of 5000/well in 100 μl medium in a 96-well plate were treated with different drugs in the given concentration. After 24 or 48 h the cells were incubated, according to the manufacturer's protocol, with XTT labelling mixture. After 4 h the formazan dye is quantified using a scanning multiwell spectrophotometer with a 495-nm filter. The absorbance is directly correlated with the number of viable cells. The standard absorbance curve was drawn by means of untreated cells seeded at a concentration of from 1000 to 10 000 cells/well with an increasing rate of 1000 cells/well. All standards and experiments were performed in triplicates.
12 different types of cell lines were seeded in 96-well plates (medium volume in a well was 100 μl), at a concentration of 10,000 cells/cm^2 in Minimal Essential Medium supplemented with fetal calf serum. When the cells had reached a concentration of 65,000 cells/cm^2, they were treated with different doses of podophyllotoxin and picropodophyllin for 48 h. Cell viability was then assayed (see above). […]

[2] = tested on: HaCaT cells; experiment: Cell viability of HaCaT cells (psoriasis model); conditions: Homo sapiens, 48 h, read-out: Cell viability
Procedure: Keratinocytes (HaCaT cells) were provided by and tested in collaboration with Professor Mona Bäckdahl, Department of Dermatology, Karolinska Hospital, Stockholm, Sweden. The HaCaT cell line is a spontaneously immortalized human keratinocyte cell line (Boukamp P, et al., J Cell Biol 106: 761-771, 1988), which is frequently used as an experimental model for psoriasis (Wraight, C. J., et al. Nat Biotechnol 18: 521-526, 2000.) HaCaT cells were cultured in Dulbecco's Modified Eagle's Medium containing 10% fetal bovine serum, glutamine, benzylpenicillin and streptomycin.
as §1, with “All standards and experiments were performed in triplicates.” left out

[3] = biological target: IGF-1R (Homo sapiens, UniProt P08069); experiment: Tyrosine phosphorylation of IGF-1R in intact FM55 melanoma cells; set-up: endogenous in cells; conditions: 0.05 μM, 1 h; for Level of phosphorylation in intact cells, substrate IGF-1R: FM55 cells, Experiment 3; for Level of IGF-1R phosphorylation in intact cells: FM55 melanoma cells, means of 3 experiments
Chain of IGF-1R (P08069 31-1367): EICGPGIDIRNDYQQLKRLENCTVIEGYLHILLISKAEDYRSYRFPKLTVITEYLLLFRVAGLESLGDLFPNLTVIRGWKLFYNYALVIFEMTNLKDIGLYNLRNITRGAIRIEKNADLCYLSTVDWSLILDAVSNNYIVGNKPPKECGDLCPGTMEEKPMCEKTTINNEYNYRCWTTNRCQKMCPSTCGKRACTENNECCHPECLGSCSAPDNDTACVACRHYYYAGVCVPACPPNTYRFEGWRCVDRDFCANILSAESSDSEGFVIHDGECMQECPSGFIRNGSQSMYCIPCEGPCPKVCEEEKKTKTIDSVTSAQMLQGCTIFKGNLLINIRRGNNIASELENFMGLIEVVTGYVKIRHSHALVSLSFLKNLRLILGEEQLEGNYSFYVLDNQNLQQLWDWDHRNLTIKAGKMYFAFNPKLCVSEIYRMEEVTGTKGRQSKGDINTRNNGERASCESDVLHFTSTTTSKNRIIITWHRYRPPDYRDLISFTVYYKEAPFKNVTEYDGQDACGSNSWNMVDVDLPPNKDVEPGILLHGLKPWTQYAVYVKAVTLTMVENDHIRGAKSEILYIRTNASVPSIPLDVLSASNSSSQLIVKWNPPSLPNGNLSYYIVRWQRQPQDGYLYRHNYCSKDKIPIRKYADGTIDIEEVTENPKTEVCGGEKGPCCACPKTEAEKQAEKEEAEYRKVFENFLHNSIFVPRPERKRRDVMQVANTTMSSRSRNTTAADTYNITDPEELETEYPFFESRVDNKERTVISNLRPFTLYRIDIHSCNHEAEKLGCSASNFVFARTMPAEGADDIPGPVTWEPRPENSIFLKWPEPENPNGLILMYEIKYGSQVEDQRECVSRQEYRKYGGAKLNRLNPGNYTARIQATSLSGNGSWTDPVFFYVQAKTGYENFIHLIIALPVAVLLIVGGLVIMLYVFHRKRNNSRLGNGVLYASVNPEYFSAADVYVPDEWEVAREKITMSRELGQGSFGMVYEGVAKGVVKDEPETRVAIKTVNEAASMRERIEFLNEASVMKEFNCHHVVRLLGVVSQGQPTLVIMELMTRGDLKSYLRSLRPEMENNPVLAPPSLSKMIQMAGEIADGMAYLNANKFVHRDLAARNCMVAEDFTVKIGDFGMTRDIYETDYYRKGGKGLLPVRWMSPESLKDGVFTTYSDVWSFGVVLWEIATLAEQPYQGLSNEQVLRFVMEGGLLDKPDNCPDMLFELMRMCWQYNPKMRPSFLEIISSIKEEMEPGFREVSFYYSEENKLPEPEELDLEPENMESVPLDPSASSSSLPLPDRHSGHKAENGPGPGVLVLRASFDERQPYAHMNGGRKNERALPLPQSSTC
Procedure: Cells were cultured to subconfluency in 6-cm plates, and then fresh medium containing 10% FBS and the desired compounds were added for 1 h. The cells were then lyzed and subjected to immunoprecipitation using specific antibodies. Immunoprecipitates were resolved by sodium dodecyl sulphate polyacrylamide gel electrophoresis (SDS-PAGE) and transferred to nitro-cellulose membranes and incubated with anti-phosphotyrosine antibody. Antibodies to actin (in cell extract) or IGF-1R beta subunit were used as loading controls. After detection the films were scanned for quantification.
The isolated cells were then lyzed in 10 ml ice-cold PBSTDS containing protease inhibitors (Carlberg, M., et al., J Biol Chem 271:17453-17462, 1996). 50 μl protein A or G agarose was added in 1 ml sample and incubated for 15 min at 4° C. on an orbital shaker. After centrifugation for 10 min at 10,000 r/min at 4° C. the supernatant was saved. The protein content was determined by a dye-binding assay with a reagent purchased from Bio-Rad. Bovine serum albumin was used as a standard. 15 μl Protein G Plus agarose and 5 μl anti-IGF-1R were added. After a 3 h incubation at 4° C. on an orbital shaker the precipitate was collected by pulse centrifugation in a micro centrifuge at 14,000×g for 10 s. The supernatant was discarded and the pellet was washed 3 times with PBSTDS.
Protein samples were solved in a 2×-sample buffer containing Laemmli buffer and 0.5% […] and boiled for 5 min at 96° C. Samples were separated by SDS-PAGE with a 4% stacking gel and 7.5% separation gel. Molecular weight markers (Bio Rad, Sweden) were run simultaneously in all experiments.
Following SDS-PAGE the proteins were transferred overnight to nitro-cellulose membranes (Hybond, Amersham, UK) and then blocked for 1 h at room temperature in a solution of 4% skimmed milk powder and 0.02% Tween 20 in PBS, pH 7.5. Incubations with the primary antibodies were performed for 1 h at room temperature, followed by 3 washes with PBS with Tween and incubation with the second antibody for 1 h room temperature. After another 3 washes the membranes were incubated with Streptavidin-labelled horseradish peroxidase for 30 min and then detected using Amersham ECL system (Amersham, UK). The films were scanned by Fluor-S (BioRad).
FM55 melanoma cells were seeded in 6-cm dishes, at a concentration of 10,000 cells/cm^2 in Minimal Essential Medium supplemented with 10% fetal calf serum (FCS). When the cells reached a density of 65,000 cells/cm^2 in the dishes, they were treated for 1 h with 0.05 μM podophyllotoxin, deoxypodophyllotoxin, picropodophyllin, deoxypicropodophyllin, 4′-demethyl-7-(4,6-O-ethylidene-β-D-glucopyranosyl)epipodophyllotoxin (etoposide) and podophyllotoxin-4,6-O-benzylidene-β-D-glucopyranoside (pf-4,6-O). Etoposide and pf-4,6-O were also administered at 15 μM. The cells were then harvested for assay and quantification of IGF-1R phosphorylation as described in Experiment 1. The values shown in Table 1 represent means of 3 experiments.
FM55 melanoma cells were cultured in the same way as described in Experiment 1. When reaching a density of 65,000 cells/cm^2 in the dishes, they were treated for 1 h with 0 (control) and 0.05 μM of picropodophyllin and podophyllotoxin, respectively. The cells were then isolated and subjected to immunoprecipitation of the IGF-1R, fibroblast growth factor receptor (FGFR), platelet-derived growth factor receptor (PDGFR), epidermal growth factor receptor (EGFR), insulin receptor (IR) and insulin substrate-1 (IRS-1) using antibodies to respective molecules. IRS-1 is a substrate of IGF-1R, and therefore its phosphorylation is dependent on phosphorylated IGF-1R. Gelelectrophoresis, Western blotting and quantification of the different signals were performed as described above.

SMILES	EC50 [1] [nM]	viability at 0.05 µM ([2]; HaCaT cells, 0.05 μM, control 100) [%]	Level of phosphorylation in intact cells, substrate IGF-1R [3] [% OD]	Level of IGF-1R phosphorylation in intact cells [3] [% OD]	viability at 0.05 µM ([2]; HaCaT) [%]
COc1cc([C@@H]2c3cc4c(cc3[C@H](O)[C@H]3COC(=O)[C@@H]23)OCO4)cc(OC)c1OC [Picropodophyllin, picropodophyllin]	100	35	20	8	
COc1cc([C@@H]2c3cc4c(cc3[C@H](O)[C@H]3COC(=O)[C@H]23)OCO4)cc(OC)c1OC [Podophyllotoxin, podophyllotoxin]	100		7	5	30
